A melting point compilation (Tetko et al.; mined from patent text by program, amines drawn as free bases though some values may be those of a salt)

melting point	Compound
110 to 111 °C	O=[N+]([O-])c1cn(-c2cncc(F)c2)nc1Cl
188 to 193 °C	CNCC1COC2(CCN(c3nc4c(cc3F)C=C(C(=O)O)CN4c3ccc(F)cc3F)CC2)O1 (stereo unspecified)
86 to 88 °C	CN(C)C(=O)OC1CCN(c2ncc(-c3ccccc3Cl)cn2)CC1
104 °C	Cc1cccc(NC(=O)NCC(=O)N2C(Cc3ccccc3)SC[C@H]2C(=O)OC(C)(C)C)c1 (stereo partly specified)
200 to 202 °C	O=CC=Cc1ccc(O)c(O)c1
170 to 172 °C	Cn1c(C(F)(F)F)cc(=O)n(-c2ccc(Cl)c(C=CC(=O)OCC(F)(F)F)c2)c1=O
154 °C	N#Cc1cc([N+](=O)[O-])c(O)c(O)c1F
102 to 105 °C	O=Cc1ccc(NCc2cccc(Cl)c2)cn1
215 to 216 °C	O=C(c1ccc(Nc2ccnc3cc(C(F)(F)F)ccc23)cc1)N1CCC(S(=O)c2ccc(F)cc2)CC1 (stereo unspecified)
126 to 128 °C	O=S(=O)(Cc1ccccc1)On1nnc2ccc(Cl)cc21
280 to 283 °C	N#Cc1ccc(-c2ccc3cnc(Nc4ccc(N5CCOCC5)cc4)nn23)cn1
231 to 233 °C	CC(C)(C)c1ccc(C(=O)Nc2cn3nc(NCCO)ccc3n2)cc1
63 °C	CCCNc1c(C#N)cnn1-c1ccc(OC(F)(F)F)cc1Cl
317 to 320 °C	CS(=O)(=O)c1ccc(-c2nc(C(F)(F)F)nc(N=[N+]=[N-])c2-c2ccc(Cl)cc2)cc1
159 to 160 °C	Cc1cc(C)c(NC(=O)CN2CCN(CCSc3nc4ccccc4o3)CC2)c(C)n1
79 to 82 °C	CC(C)(C)OC(=O)NCCc1cccc(O)c1
107 to 109 °C	COc1cc(Cl)c(C=O)c(Cl)c1
166 to 167 °C	Cc1ccc(-c2cncnc2N)cc1
90 to 97 °C	CCCNC(=O)C(C)=Cc1ccc2c(c1)c(Cc1ccc(C(=O)O)cc1OC)cn2CCC(=O)N(C)C
135 to 136 °C	Cn1cc(-c2ccccc2)c(=O)c(-c2cccc([N+](=O)[O-])c2)c1
204 °C	CC(C)n1cc(-c2nc(C#N)c(N)nc2-c2ccccc2)ccc1=O
105 to 106 °C	CCOC(=O)C1(NC(=O)OCc2ccccc2)CC(=O)NC1=O (stereo unspecified)
93 to 98 °C	CC(=O)N(O)Cc1ccccc1Nc1cccc(C)c1C

melting point	Compound
220 °C	CCCOc1nsc(NC(=O)NC)c1C#N
126 to 130 °C	CC(C)CC[C@H](O)[C@H](CC1CCCCC1)NC(=O)[C@@H](N)Cc1c[nH]cn1
203 to 205 °C	CC(=O)OCCC1=CCC2C3CCC4=CCC=CC4(C)C3C(O)CC12C (stereo unspecified)
161 to 163 °C	O=C(c1ccccc1)c1ccc(NC(=O)N2CCC3(CC2)OC(=O)c2ccccc23)cc1
168 °C	CC(C)(C)OC(=O)N[C@@H](Cc1ccccc1)C(=O)NCCCN1CCN(CCCNc2cccc3c2C(=O)c2ccccc2C3=O)CC1
133 to 135 °C	CCCC(O)(CCC)c1ccc(Cl)c2nc3n(c12)CCCN3c1ccc(Cl)cc1Cl
145 to 146 °C	Nc1cccnc1Nc1ccccc1C(=O)c1ccc(Cl)cc1
134 to 135 °C	CCOC(=O)c1cn(Cc2ccccc2)nc1OCc1ccc(OCc2nc(-c3ccco3)oc2C)c(-c2ccccc2)c1
66 to 67.5 °C	COC(=O)C=Cc1c(O)cccc1C#CCCCCOC1CCCCO1 (racemic)
127 to 129 °C	COc1cccc(C(=O)Nc2cnn(Cc3c(C)noc3C)c2)c1
118 to 119 °C	O=C(O)N[C@@H](CC1CCCCC1)[C@@H](O)[C@@H]1CCCS1
147 to 148 °C	O=C(Nc1nnn(CC2CC2)n1)C(c1ccccc1)c1ccccc1
123 to 124 °C	ClC(=NNc1c(Cl)cc(Cl)cc1Cl)c1ccc(Cl)cc1
296 to 297 °C	O=c1[nH]c2ncc(-c3ccc(O)cc3)nc2n1CC1CCCC1
193 to 198 °C	O=C(Cn1nc2ccccc2n1)Nc1ccc(-n2nc(C(F)(F)F)cc2C2CC2)nc1
173 to 177 °C	CCOc1ccnc(CSc2nc3ccc(C(F)(F)F)cc3[nH]2)c1C
177 to 179 °C	Cc1c(C(=O)CN2CCCCC2)c(C)n(C)c1C(=O)c1ccc(Cl)cc1Cl
161 to 163 °C	Cc1c(C)c(N2Cc3ccccc3C2)c(C)c2c1OC(C)(C)C2
89 °C	CCCCNS(=O)(=O)c1cc(C(=O)CCl)ccc1Cl
161 to 163 °C	C1=C(COc2ccccc2)CCN(Cc2c[nH]c3ncccc23)C1
215 to 217 °C	Cc1nc2c(N)nc3ccc(OCc4ccccc4)cc3c2n1CCCCCS(C)(=O)=O
182 °C	CCCCCCCNC(=O)Nc1ccccc1C(=O)NC1CCN(C(c2ccccc2)c2ccccc2)CC1
83 to 84.5 °C	CC(=O)n1nc(-c2ccccc2)cc1Sc1ccccc1

melting point	Compound
74.3 °C	C[C@@H]1CCN(C(=O)CC#N)C[C@@H]1N(C)c1ncnc2sccc12
157 to 159 °C	CCOC(=O)c1cn(CC)c2cc(F)c(F)c(C)c2c1=O
218 to 221 °C	COC(=O)C1(S(C)(=O)=O)C(C)NC(C)=CC1c1ccccc1S(=O)(=O)NN(C)C (stereo unspecified)
157 to 159 °C	Cc1c2c3c(ccc2nn1C)CCC3=O
242 to 245 °C	OC1(C2=NCCCN2)c2ccccc2-c2ccccc21
217 to 219 °C	O=C(O)Cc1cc(=O)n(Cc2ccc(Cl)cc2)c2ccc([N+](=O)[O-])cc12
111 to 115 °C	O=[N+]([O-])c1ccc(Oc2ccc(C(F)(F)F)cc2Cl)cc1C=NO
208 °C	CC(=O)c1c(O)c(C(C)=O)c(C(C)=O)c2c1Oc1cc(O)ccc1N2
99 °C	CC(=O)NCCN1CCCc2ccc(C)cc21
160 to 175 °C	CC1Oc2ccccc2C(O)C1n1ccnc1 (stereo unspecified)
274 to 276 °C	COc1cc(Nc2c(C#N)cnc3cc(-c4ccccc4)sc23)c(Cl)cc1Cl
72.4 to 74.8 °C	O=C1CCc2cc3c(cc21)CCC3
177 to 179 °C	O=C(NC1CCN(CCCCc2cc(F)cc3c2-c2ccc(F)cc2C3C(=O)NCC(F)(F)F)CC1)c1ccccc1 (stereo unspecified)
118 °C	Cn1ncnc1COc1nn2c(-c3ccc(F)cc3F)nncc2c1C(C)(C)C
> 270 °C	CCn1c(=O)c2[nH]c(/C=C/c3ccccc3OC)nc2n(CC)c1=O
105 °C	N#Cc1ccc(C(=C2C3CC4CC(C3)CC2C4)c2nc[nH]n2)cc1
110 to 111 °C	O=C(CC(CSC(=O)c1ccccc1)C(=O)O)c1ccccc1 (stereo unspecified)
122 to 123 °C	Nc1cc(C=O)nc(C2CCCO2)c1F (stereo unspecified)
137 °C	Nc1c(Cl)ncnc1NCc1ccc(CO)o1
145 to 150 °C	CC(O)C(CO)(Cc1cc(C(C)(C)C)c(O)c(C(C)(C)C)c1)Cc1cc(C(C)(C)C)c(O)c(C(C)(C)C)c1 (stereo unspecified)
88 to 89 °C	CC(C)Oc1ccc(CCCOc2cc(CCC(=O)O)n(C)n2)c(Oc2ncc(C(F)(F)F)cc2Cl)c1

Compound	melting point
COC(=O)c1ccc(CC(C)NCC(O)c2ccc(O)c(CO)c2)cc1C (stereo unspecified)	82 to 85 °C
COc1cc(OCCN2C3C=C(c4ccc5ccccc5c4)CC2CC3)c2ncccc2c1 (stereo unspecified)	100 to 103 °C
CC(=O)Oc1ccc(C=Cc2cc(OC(C)=O)cc(OC(C)=O)c2)cc1	112 to 113 °C
CNC(=S)N(C)Cc1ccc(Br)nc1	107 to 108 °C
